US8377884B2, “Variants of C-type natriuretic peptides” (Biomarin Pharmaceutical Inc., priority 2007, dated 2013)
Read-outs that look alike come from different tables or passages of the source. Bridge positions count the residues as written; N and C are the ends. Peptide text beside a SMILES is read from it. * marks the point of attachment. PEG12 = NCCOCCOCCOCCOCCOCCOCCOCCOCCOCCOCCOCCOCCC(=O)O; Biotin = O=C1N[C@H]2[C@H](CS[C@H]2CCCCC(=O)*)N1; Heptanoyl = CCCCCCC(=O)*

What was measured:
[1] = target: neutral endopeptidase (NEP) (Homo sapiens, UniProt P08473); test: In vitro neutral endopeptidase (NEP) cleavage assay; details: human, pH 7
Method: To determine the effects of amino acid substitutions, amino acid extensions, backbone modifications, side chain modifications and PEGylation on the susceptibility of CNP variants to neutral endopeptidase (NEP) cleavage, peptide cleavage assays were carried out using an in vitro assay that monitored disappearance of the non-cleaved CNP variant.
Recombinant human NEP (1 ug/mL final concentration) was added to 100 uM CNP variant diluted in 0.1 M Tris, pH 7. The reaction mixture was incubated at 37° C. for various periods of time, and the reaction was quenched with EDTA (10 mM final) followed by heat denaturation. The reaction mixture was reduced and then the reaction products were analyzed using HPLC and mass spectroscopy. The half-life of the CNP variant was calculated based on the disappearance of intact CNP variant over time.

[2] = target: T1, NPR-B (Mus musculus, UniProt Q6VVW5); test: Stimulation of cGMP production in NIH3T3 cells; type: cell-based, Murine; details: for cGMP response relative to 1 uM CNP22 (%) at 0.01 µM: read-out: cGMP Response rel. to 1 uM CNP22, 10 nM; for cGMP response relative to 1 uM CNP22 (%) at 1 µM: read-out: cGMP Response rel. to 1 uM CNP22, 1 uM
T1 construct: Murine NIH3T3 cells express endogenously the CNP signaling receptor, NPR-B; endogenous in cells; host or cells: NIH3T3 (murine fibroblasts)
T1 sequence (Q6VVW5 17-1047): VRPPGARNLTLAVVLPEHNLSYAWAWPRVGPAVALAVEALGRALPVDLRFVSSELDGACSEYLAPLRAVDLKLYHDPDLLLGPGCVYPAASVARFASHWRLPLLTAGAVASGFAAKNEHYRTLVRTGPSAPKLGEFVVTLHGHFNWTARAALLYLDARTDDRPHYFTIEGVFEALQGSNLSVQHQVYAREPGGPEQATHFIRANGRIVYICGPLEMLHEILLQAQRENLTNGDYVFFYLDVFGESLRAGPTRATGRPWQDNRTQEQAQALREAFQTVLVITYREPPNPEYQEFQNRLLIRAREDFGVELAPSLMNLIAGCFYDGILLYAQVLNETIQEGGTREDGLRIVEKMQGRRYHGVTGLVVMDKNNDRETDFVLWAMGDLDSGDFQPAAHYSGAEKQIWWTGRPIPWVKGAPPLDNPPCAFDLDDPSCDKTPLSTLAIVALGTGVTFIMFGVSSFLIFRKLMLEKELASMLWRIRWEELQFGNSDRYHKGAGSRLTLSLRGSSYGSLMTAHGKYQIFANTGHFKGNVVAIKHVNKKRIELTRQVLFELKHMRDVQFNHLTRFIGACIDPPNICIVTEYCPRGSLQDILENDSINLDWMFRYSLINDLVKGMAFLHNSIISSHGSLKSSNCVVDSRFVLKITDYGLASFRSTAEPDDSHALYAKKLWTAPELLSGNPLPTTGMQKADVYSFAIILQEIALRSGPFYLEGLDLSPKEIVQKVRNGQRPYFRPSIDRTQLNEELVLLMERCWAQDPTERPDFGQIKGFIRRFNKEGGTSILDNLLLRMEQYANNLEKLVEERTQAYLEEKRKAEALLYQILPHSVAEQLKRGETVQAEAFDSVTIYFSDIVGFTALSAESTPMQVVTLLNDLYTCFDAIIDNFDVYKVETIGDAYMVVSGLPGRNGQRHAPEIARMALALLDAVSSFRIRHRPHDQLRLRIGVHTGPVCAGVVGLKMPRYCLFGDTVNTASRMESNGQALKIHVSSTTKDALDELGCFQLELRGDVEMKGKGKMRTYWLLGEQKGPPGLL

[3] = recombinant human neutral endopeptidase (NEP)
[4] = NIH3T3 cells, 10 nM natriuretic peptide, normalized to cell number and cGMP production with 1 uM wtCNP22
[5] = NIH3T3 cells, 1 uM natriuretic peptide, normalized to cell number and cGMP production with 1 uM wtCNP22

Sequence of neutral endopeptidase (NEP) (P08473 whole entry): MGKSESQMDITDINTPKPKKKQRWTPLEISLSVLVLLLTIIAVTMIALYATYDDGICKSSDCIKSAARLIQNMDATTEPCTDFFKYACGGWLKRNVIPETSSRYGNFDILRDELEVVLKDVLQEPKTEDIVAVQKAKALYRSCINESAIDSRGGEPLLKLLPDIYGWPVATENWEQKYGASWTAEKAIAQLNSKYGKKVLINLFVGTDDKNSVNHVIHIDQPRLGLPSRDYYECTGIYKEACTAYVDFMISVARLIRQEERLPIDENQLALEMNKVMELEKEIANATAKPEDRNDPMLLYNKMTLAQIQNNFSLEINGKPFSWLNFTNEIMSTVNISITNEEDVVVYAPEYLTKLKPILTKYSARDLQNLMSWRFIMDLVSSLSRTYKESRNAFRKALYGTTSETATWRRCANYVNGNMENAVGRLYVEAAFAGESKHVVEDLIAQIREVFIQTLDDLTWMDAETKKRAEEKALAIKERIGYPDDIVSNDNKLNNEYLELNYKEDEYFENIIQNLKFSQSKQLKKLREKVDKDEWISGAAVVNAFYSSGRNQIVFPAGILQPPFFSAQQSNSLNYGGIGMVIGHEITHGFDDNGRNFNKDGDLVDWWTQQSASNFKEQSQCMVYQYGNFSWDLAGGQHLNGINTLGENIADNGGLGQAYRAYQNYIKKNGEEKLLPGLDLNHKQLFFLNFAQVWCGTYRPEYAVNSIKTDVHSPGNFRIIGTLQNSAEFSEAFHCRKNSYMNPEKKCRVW

Compound | half-life at 100 uM [1, 3] [h] | cGMP response relative to 1 uM CNP22 (%) at 0.01 µM [2, 4] [%] | cGMP response relative to 1 uM CNP22 (%) at 1 µM [2, 5] [%] | half-life at 100 uM [1] [h] | cGMP response relative to 1 uM CNP22 (%) at 0.01 µM ([2]; NIH3T3, […]) [%] | cGMP response relative to 1 uM CNP22 (%) at 1 µM ([2]; NIH3T3, […]) [%]
CC[C@H](C)[C@@H]1NC(=O)[C@H](CCCNC(=N)N)NC(=O)[C@H](CC(=O)O)NC(=O)[C@H](CC(C)C)NC(=O)[C@H](CCCCN)NC(=O)[C@H](CC(C)C)NC(=O)CNC(=O)[C@H](Cc2ccccc2)NC(=O)[C@@H](NC(=O)CNC(=O)CNC(=O)[C@H](CO)NC(=O)[C@H](CC(C)C)NC(=O)CNC(=O)CCOCCOCCOCCOCCOCCOCCOCCOCCOCCOCCOCCOCCNC(=O)CCCC[C@@H]2SC[C@@H]3NC(=O)N[C@@H]32)CSSC[C@@H](C(=O)O)NC(=O)CNC(=O)[C@H](CC(C)C)NC(=O)CNC(=O)[C@H](CO)NC(=O)[C@H](CCSC)NC(=O)[C@H](CO)NC(=O)CNC1=O [(PEO12)-Biotin-CNP22, K4G] ({Biotin-PEG12}-GLSGGCFGLKLDRIGSMSGLGC-OH; disulfide 6-22; C-terminus assumed) | – | – | – | 1.67 | 10 | 27
CC[C@H](C)[C@@H]1NC(=O)[C@H](CCCNC(=N)N)NC(=O)[C@H](CC(=O)O)NC(=O)[C@H](CC(C)C)NC(=O)[C@H](CCCCN)NC(=O)[C@H](CC(C)C)NC(=O)CNC(=O)[C@H](Cc2ccccc2)NC(=O)[C@@H](NC(=O)CNC(=O)[C@H](CCCCN)NC(=O)[C@H](CO)NC(=O)[C@H](CC(C)C)NC(=O)CNC(=O)CCOCCOCCOCCOCCOCCOCCOCCOCCOCCOCCOCCOCCNC(=O)CCCC[C@@H]2SC[C@@H]3NC(=O)N[C@@H]32)CSSC[C@@H](C(=O)O)NC(=O)CNC(=O)[C@H](CC(C)C)NC(=O)CNC(=O)[C@H](CO)NC(=O)[C@H](CCSC)NC(=O)[C@H](CO)NC(=O)CNC1=O [(PEO12)-Biotin-CNP22] | – | – | – | 2.33 | 19 | 81
CC[C@H](C)[C@@H]1NC(=O)[C@H](CCCNC(=N)N)NC(=O)[C@H](CC(=O)O)NC(=O)[C@H](CC(C)C)NC(=O)[C@H](CCCCN)NC(=O)[C@H](CC(C)C)NC(=O)CNC(=O)[C@H](Cc2ccccc2)NC(=O)[C@@H](NC(=O)CNC(=O)[C@H](CCCNC(=N)N)NC(=O)[C@H](CO)NC(=O)[C@H](CC(C)C)NC(=O)CNC(=O)[C@H](CCCNC(=N)N)NC(=O)[C@H](CCCNC(=N)N)NC(=O)[C@H](CC(N)=O)NC(=O)[C@H](C)NC(=O)CN)CSSC[C@@H](C(=O)O)NC(=O)CNC(=O)[C@H](CC(C)C)NC(=O)CNC(=O)[C@H](CO)NC(=O)[C@H](CCSC)NC(=O)[C@H](CO)NC(=O)CNC1=O [AY] (H-GANRRGLSRGCFGLKLDRIGSMSGLGC-OH; disulfide 11-27 (inferred); N-terminus and C-terminus assumed) | – | 59 ± 9 | 105 ± 20 | 1.08 | – | –
CCCCCCC(=O)N[C@@H](CCC(=O)O)C(=O)N[C@@H](CC(C)C)C(=O)N[C@@H](CO)C(=O)N[C@@H](CCCCN)C(=O)NCC(=O)N[C@H]1CSSC[C@@H](C(=O)O)NC(=O)CNC(=O)[C@H](CC(C)C)NC(=O)CNC(=O)[C@H](CO)NC(=O)[C@H](CCSC)NC(=O)[C@H](CO)NC(=O)CNC(=O)[C@H]([C@@H](C)CC)NC(=O)[C@H](CCCNC(=N)N)NC(=O)[C@H](CC(=O)O)NC(=O)[C@H](CC(C)C)NC(=O)[C@H](CCCCN)NC(=O)[C@H](CC(C)C)NC(=O)CNC(=O)[C@H](Cc2ccccc2)NC1=O [BB] (Heptanoyl-ELSKGCFGLKLDRIGSMSGLGC-OH; disulfide 6-22 (inferred); C-terminus assumed) | – | – | – | 0.75 to 1.08 | 32 ± 4 | 84 ± 19

Further lines, with some results ahead:

half-life at 100 uM [1, 3] [h] | cGMP response relative to 1 uM CNP22 (%) at 0.01 µM [2, 4] [%] | cGMP response relative to 1 uM CNP22 (%) at 1 µM [2, 5] [%] | Compound | half-life at 100 uM [1] [h] | cGMP response relative to 1 uM CNP22 (%) at 0.01 µM ([2]; NIH3T3, […]) [%] | cGMP response relative to 1 uM CNP22 (%) at 1 µM ([2]; NIH3T3, […]) [%]
1.33 | 11 ± 2 | 66 ± 16 | CC[C@H](C)[C@@H]1NC(=O)[C@H](CCCNC(=N)N)NC(=O)[C@H](CC(=O)O)NC(=O)[C@H](CC(C)C)NC(=O)[C@H](CCCCN)NC(=O)[C@H](CC(C)C)NC(=O)[C@H]([C@@H](C)O)NC(=O)[C@H](Cc2ccccc2)NC(=O)[C@@H](NC(=O)CNC(=O)[C@H](CCCNC(=N)N)NC(=O)[C@H](CO)NC(=O)[C@H](CC(C)C)NC(=O)CN)CSSC[C@@H](C(=O)O)NC(=O)CNC(=O)[C@H](CC(C)C)NC(=O)CNC(=O)[C@H](CO)NC(=O)[C@H](CCSC)NC(=O)[C@H](CO)NC(=O)CNC1=O [AC] (H-GLSRGCFTLKLDRIGSMSGLGC-OH; disulfide 6-22 (inferred); N-terminus and C-terminus assumed) | – | – | –
1.33 | 59 | 121 | CC[C@H](C)[C@@H]1NC(=O)[C@H](CCCNC(=N)N)NC(=O)[C@H](CC(=O)O)NC(=O)[C@H](CC(C)C)NC(=O)[C@H](CCCCN)NC(=O)[C@H](CC(C)C)NC(=O)CNC(=O)[C@H](Cc2ccccc2)NC(=O)[C@@H](NC(=O)CNC(=O)[C@H](CCCNC(=N)N)NC(=O)[C@H](CO)NC(=O)[C@H](CC(C)C)NC(=O)CN)CSSC[C@@H](C(=O)O)NC(=O)CNC(=O)[C@H](CC(C)C)NC(=O)CNC(=O)[C@H](CO)NC(=O)[C@H](CCSC)NC(=O)[C@H](CO)NC(=O)CNC1=O [AH] (H-GLSRGCFGLKLDRIGSMSGLGC-OH; disulfide 6-22 (inferred); N-terminus and C-terminus assumed) | – | – | –
1 | 11 | 54 | CC[C@H](C)[C@@H]1NC(=O)[C@H](CCCNC(=N)N)NC(=O)[C@H](CC(=O)O)NC(=O)[C@H](CC(C)C)NC(=O)[C@H](CCCCN)NC(=O)[C@H](CC(C)C)NC(=O)CNC(=O)[C@H](Cc2ccccc2)NC(=O)[C@@H](NC(=O)CNC(=O)[C@H](CCC(=O)O)NC(=O)[C@H](CO)NC(=O)[C@H](CC(C)C)NC(=O)[C@@H](N)CCC(=O)O)CSSC[C@@H](C(=O)O)NC(=O)CNC(=O)[C@H](CC(C)C)NC(=O)CNC(=O)[C@H](CO)NC(=O)[C@H](CCSC)NC(=O)[C@H](CO)NC(=O)CNC1=O [AT] (H-ELSEGCFGLKLDRIGSMSGLGC-OH; disulfide 6-22 (inferred); N-terminus and C-terminus assumed) | – | – | –
– | 54 ± 11 | 106 ± 15 | CC[C@H](C)[C@@H]1NC(=O)[C@H](CCCNC(=N)N)NC(=O)[C@H](CC(=O)O)NC(=O)[C@H](CC(C)C)NC(=O)[C@H](CCCCN)NC(=O)[C@H](CC(C)C)NC(=O)CNC(=O)[C@H](Cc2ccccc2)NC(=O)[C@@H](NC(=O)CNC(=O)[C@H](CCCNC(=N)N)NC(=O)[C@H](CO)NC(=O)[C@H](CC(C)C)NC(=O)CNC(=O)[C@@H](N)CCCNC(=N)N)CSSC[C@@H](C(=O)O)NC(=O)CNC(=O)[C@H](CC(C)C)NC(=O)CNC(=O)[C@H](CO)NC(=O)[C@H](CCSC)NC(=O)[C@H](CO)NC(=O)CNC1=O [AZ] (H-RGLSRGCFGLKLDRIGSMSGLGC-OH; disulfide 7-23 (inferred); N-terminus and C-terminus assumed) | ≥ 2.67 | – | –
– | 38 ± 10 | 113 ± 10 | CC[C@H](C)[C@@H]1NC(=O)[C@H](CCCNC(=N)N)NC(=O)[C@H](CC(=O)O)NC(=O)[C@H](CC(C)C)NC(=O)[C@H](CCCCN)NC(=O)[C@H](CC(C)C)NC(=O)CNC(=O)[C@H](Cc2ccccc2)NC(=O)[C@@H](NC(=O)CNC(=O)[C@H](CCCNC(=N)N)NC(=O)[C@H](CO)NC(=O)[C@H](CC(C)C)NC(=O)CNC(=O)[C@H](CCCNC(=N)N)NC(=O)[C@@H](N)CCC(=O)O)CSSC[C@@H](C(=O)O)NC(=O)CNC(=O)[C@H](CC(C)C)NC(=O)CNC(=O)[C@H](CO)NC(=O)[C@H](CCSC)NC(=O)[C@H](CO)NC(=O)CNC1=O [BA] (H-ERGLSRGCFGLKLDRIGSMSGLGC-OH; disulfide 8-24 (inferred); N-terminus and C-terminus assumed) | 1.5 | – | –
